pIC50: −log10 of the molar value.
Target: T1, 5-lipoxygenase (Rattus norvegicus, UniProt P12527)
T1 construct: The 100,000 x g supernatant fraction of Rat Basophilic Leukemia Cell Homogenate (RBL-1) serves as a 5-lipoxygenase enzyme source; endogenous in cells; host or cells: RBL-1 (rat basophilic leukemia) cells, 100,000 x g supernatant of homogenate
T1 sequence (P12527 1-673): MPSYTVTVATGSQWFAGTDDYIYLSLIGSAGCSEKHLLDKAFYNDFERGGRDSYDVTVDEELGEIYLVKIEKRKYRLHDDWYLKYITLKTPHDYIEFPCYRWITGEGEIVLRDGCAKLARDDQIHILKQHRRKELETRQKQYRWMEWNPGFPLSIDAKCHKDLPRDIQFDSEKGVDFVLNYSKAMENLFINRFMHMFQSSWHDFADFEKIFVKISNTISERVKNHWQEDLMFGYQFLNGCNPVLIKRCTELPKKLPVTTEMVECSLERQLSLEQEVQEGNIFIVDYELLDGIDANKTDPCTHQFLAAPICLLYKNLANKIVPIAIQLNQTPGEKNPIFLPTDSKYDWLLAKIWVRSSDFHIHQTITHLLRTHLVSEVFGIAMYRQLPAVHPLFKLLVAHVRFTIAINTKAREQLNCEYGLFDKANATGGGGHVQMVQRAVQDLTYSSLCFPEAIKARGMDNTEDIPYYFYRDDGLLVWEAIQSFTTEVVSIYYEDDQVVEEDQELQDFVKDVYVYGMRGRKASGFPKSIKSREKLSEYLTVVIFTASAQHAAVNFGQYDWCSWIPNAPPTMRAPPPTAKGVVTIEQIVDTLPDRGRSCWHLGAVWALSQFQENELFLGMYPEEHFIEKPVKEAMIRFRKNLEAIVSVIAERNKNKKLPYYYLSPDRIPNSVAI
Test: Inhibition of 5-lipoxygenase, in vitro (5-HETE synthesis, RBL-1 homogenate 100,000 x g supernatant)
Assay type: biochemical
Conditions: RBL-1 100,000 x g supernatant, [1-14C]-arachidonic acid and Ca++
Experimental: The compounds of the invention are evaluated with respect to 5-lipoxygenaseinhibition according to the following assay procedure.
Inhibition of 5-lipoxygenase, in vitro: anti-inflammatory, anti-allergy activities.
The 100,000 x g supernatant fraction of Rat Basophilic Leukemia Cell Homogenate (RBL-1) serves as a 5-lipoxygenase enzyme source. The enzyme is incubated with [1-^14 C)-arachidonic acid and Ca++ in the presence and absence of test compound. The product of 5-lipoxygenase, 5-hydroxyeicosatetraenoic acid (5-HETE), is separated by thin-layer chromatography and measured by radioactivity. A compound inhibiting 5-HETE synthesis by 30% or more is considered active at that concentration.

| pIC50 | Compound |
| --- | --- |
| 6.25 | CC(C)N(Cc1ccccc1)C(=O)CCSc1cc(C(C)(C)C)c(O)c(C(C)(C)C)c1 [Example 4, 3-[[3,5-bis(1,1-dimethylethyl)-4-hydroxylphenyl]thio]-N-(1-methylethyl)-N-(phenylmethyl)propanamide] |
| 5.85 | CC(C)N(C(=O)CCSc1cc(C(C)(C)C)c(O)c(C(C)(C)C)c1)C(C)C [Example 5, 3-[[3,5-bis(1,1-dimethylethyl)-4-hydroxyphenyl]thio]-N,N-bis(1-methylethyl)propanamide] |
